In patent publication US9771352B2, “Hydroxyalkyl-substituted phenyltriazole derivatives and uses thereof” (BAYER PHARMA AKTIENGESELLSCHAFT, priority 2014, dated 2017):

Experiments:
human V2 receptor = target: T1, human V2 receptor (Homo sapiens, UniProt P30518); test: Cellular in vitro assay for determining vasopressin receptor activity, V2 receptor cell line (CRE-luciferase); assay type: cell-based; settings: CHO cell line transfected with human V2 receptor; [Arg8]-vasopressin at EC50; compounds of the invention (Table 1A); read-out: IC50 hV2
T1 construct: expressed in transfected cells; host or cells: CHO K1 (ATCC) expressing firefly luciferase under a CRE-responsive promoter
T1 sequence (P30518 whole entry): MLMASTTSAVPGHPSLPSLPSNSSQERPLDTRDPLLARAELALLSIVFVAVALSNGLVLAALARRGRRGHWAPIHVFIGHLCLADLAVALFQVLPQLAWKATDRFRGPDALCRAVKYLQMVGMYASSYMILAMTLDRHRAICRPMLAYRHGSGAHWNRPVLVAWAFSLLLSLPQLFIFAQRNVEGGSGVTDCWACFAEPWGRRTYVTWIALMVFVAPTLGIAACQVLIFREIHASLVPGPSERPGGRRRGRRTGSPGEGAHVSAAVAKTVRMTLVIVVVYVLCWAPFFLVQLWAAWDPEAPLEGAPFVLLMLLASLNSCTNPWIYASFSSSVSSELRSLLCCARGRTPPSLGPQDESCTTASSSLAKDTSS
Procedure: (§1) The identification of agonists and antagonists of the V1a and V2 vasopressin receptors from humans, rats and dogs as well as the quantification of the activity of the compounds of the invention is carried out using recombinant cell lines. These cell lines originally derive from a hamster's ovary epithelial cell (Chinese Hamster Ovary, CHO K1, ATCC: American Type Culture Collection, Manassas, Va. 20108, USA). The test cell lines constitutively express the human, rat or dog V1a or V2 receptors. In case of the […] V1a receptors, cells are also stably transfected with a modified form of the calcium-sensitive photoproteins aequorin (human and rat V1a) or obelin (dog V1a), which, after reconstitution with the cofactor coelenterazine, emit light when there are increases in free calcium concentrations [Rizzuto R, Simpson A W, Brini M, Pozzan T, Nature 358, 325-327 (1992); Illarionov B A, Bondar V S, Illarionova V A, Vysotski E S, Gene 153 (2), 273-274 (1995)]. The resulting vasopressin receptor cells react to stimulation of the recombinantly expressed V1a receptors by intracellular release of calcium ions, which can be quantified by the resulting photoprotein luminescence. The Gs-coupled V2 receptors are stably transfected into cell lines expressing the gene for firefly luciferase under control of a CRE-responsible promoter. Activation of V2 receptors induces the activation of the CRE-responsive promoter via cAMP increase, thereby inducing the expression of firefly luciferase. The light emitted by photoproteins of V1a cell lines as well as the light emitted by firefly luciferase of V2 cell lines corresponds to the activation or inhibition of the respective vasopressin receptor. The bioluminescence of the cell lines is detected using a suitable luminometer [Milligan G, Marshall F, Rees S, Trends in Pharmacological Sciences 17, 235-237 (1996)].
On the day before the assay, the cells are plated out in culture medium (DMEM/F12, 2% FCS, 2 mM glutamine, 10 mM HEPES) in 384-well microtiter plates and kept in a cell incubator (96% humidity, 5% v/v CO2, 37° C.). […] Upon addition of the cell lysis reagent Triton and the substrate luciferin, luminescence of firefly luciferase is measured in a luminometer.
(§2) Table 1A below lists individual IC50 values for the compounds of the invention (including diastereomeric mixtures as well as separated, enantiopure diastereomers) that were obtained from cell lines transfected with the human V1a or V2 receptor: […]

human V1a receptor = target: T2, human V1a receptor (Homo sapiens, UniProt P37288); test: Cellular in vitro assay for determining vasopressin receptor activity, V1a receptor cell line (photoprotein luminescence); assay type: cell-based; settings: CHO cell line transfected with human V1a receptor; [Arg8]-vasopressin at EC50; compounds of the invention (Table 1A); read-out: IC50 hV1a
T2 construct: expressed in transfected cells; host or cells: CHO K1 (ATCC), also stably transfected with modified aequorin
T2 sequence (P37288 whole entry): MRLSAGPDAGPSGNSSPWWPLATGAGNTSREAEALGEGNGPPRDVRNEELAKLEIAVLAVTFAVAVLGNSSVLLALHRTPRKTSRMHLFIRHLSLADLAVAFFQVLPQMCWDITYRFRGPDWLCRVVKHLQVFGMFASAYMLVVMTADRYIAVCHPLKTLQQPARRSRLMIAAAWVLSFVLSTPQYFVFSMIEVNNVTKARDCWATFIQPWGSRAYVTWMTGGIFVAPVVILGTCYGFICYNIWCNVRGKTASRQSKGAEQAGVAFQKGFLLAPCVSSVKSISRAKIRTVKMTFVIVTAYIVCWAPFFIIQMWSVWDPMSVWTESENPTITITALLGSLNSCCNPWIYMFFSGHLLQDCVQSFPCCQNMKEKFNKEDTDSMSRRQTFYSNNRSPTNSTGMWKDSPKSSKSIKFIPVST
Procedure: as §1
On the day before the assay, the cells are plated out in culture medium (DMEM/F12, 2% FCS, 2 mM glutamine, 10 mM HEPES, 5 μg/ml coelenterazine) in 384-well microtiter plates and kept in a cell incubator (96% humidity, 5% v/v CO2, 37° C.). On the day of the assay, test compounds in various concentrations are placed for 10 minutes in the wells of the microtiter plate before the agonist [Arg^8]-vasopressin at EC50 concentration is added. The resulting light signal is measured immediately in the luminometer.
as §2

CCc1ccccc1-n1nc(Cn2nc(-c3ccc(Cl)cc3)n(C[C@H](O)C(F)(F)F)c2=O)nc1C(C)O (mixture of isomers) [Example 31, 5-(4-Chlorophenyl)-2-({1-(2-ethylphenyl)-5-[(1RS)-1-hydroxyethyl]-1H-1,2,4-triazol-3-yl}-methyl)-4-[(2S)-3,3,3-trifluoro-2-hydroxypropyl]-2,4-dihydro-3H-1,2,4-triazol-3-one]
IC50 (human V2 receptor): 0.9 nM
IC50 (human V1a receptor): 1.6 nM

CC(O)c1nc(Cn2nc(-c3ccc(Cl)cc3)n(C[C@H](O)C(F)(F)F)c2=O)nn1-c1ccc(F)cc1Cl (mixture of isomers) [Example 34, 2-({1-(2-Chloro-4-fluorophenyl)-5-[(1RS)-1-hydroxyethyl]-1H-1,2,4-triazol-3-yl}methyl)-5-(4-chlorophenyl)-4-[(2S)-3,3,3-trifluoro-2-hydroxypropyl]-2,4-dihydro-3H-1,2,4-triazol-3-one]
IC50 (human V2 receptor): 1.2 nM
IC50 (human V1a receptor): 0.4 nM

COc1ccc(F)cc1-n1nc(Cn2nc(-c3ccc(Cl)cc3)n(C[C@H](O)C(F)(F)F)c2=O)nc1C(C)O (mixture of isomers) [Example 37, 5-(4-Chlorophenyl)-2-({1-(5-fluoro-2-methoxyphenyl)-5-[(1RS)-1-hydroxyethyl]-1H-1,2,4-triazol-3-yl}methyl)-4-[(2S)-3,3,3-trifluoro-2-hydroxypropyl]-2,4-dihydro-3H-1,2,4-triazol-3-one]
IC50 (human V2 receptor): 0.7 nM
IC50 (human V1a receptor): 0.5 nM

CC(O)c1nc(Cn2nc(-c3ccc(Cl)cc3)n(C[C@H](O)C(F)(F)F)c2=O)nn1-c1ccccc1F (mixture of isomers) [Example 40, 5-(4-Chlorophenyl)-2-({1-(2-fluorophenyl)-5-[(1RS)-1-hydroxyethyl]-1H-1,2,4-triazol-3-yl}-methyl)-4-[(2S)-3,3,3-trifluoro-2-hydroxypropyl]-2,4-dihydro-3H-1,2,4-triazol-3-one]
IC50 (human V2 receptor): 7.2 nM
IC50 (human V1a receptor): 1.5 nM

CC(O)c1nc(Cn2nc(-c3ccc(Cl)cc3)n(C[C@H](O)C(F)(F)F)c2=O)nn1-c1ccc(F)c(Cl)c1 (mixture of isomers) [Example 43, 2-({1-(3-Chloro-4-fluorophenyl)-5-[(1RS)-1-hydroxyethyl]-1H-1,2,4-triazol-3-yl}methyl)-5-(4-chlorophenyl)-4-[(2S)-3,3,3-trifluoro-2-hydroxypropyl]-2,4-dihydro-3H-1,2,4-triazol-3-one]
IC50 (human V2 receptor): 1.2 nM
IC50 (human V1a receptor): 6.2 nM

CC(O)c1nc(Cn2nc(-c3ccc(Cl)cc3)n(C[C@H](O)C(F)(F)F)c2=O)nn1-c1cc(Cl)cc(Cl)c1 (mixture of isomers) [Example 46, 5-(4-Chlorophenyl)-2-({1-(3,5-dichlorophenyl)-5-[(1RS)-1-hydroxyethyl]-1H-1,2,4-triazol-3-yl}-methyl)-4-[(2S)-3,3,3-trifluoro-2-hydroxypropyl]-2,4-dihydro-3H-1,2,4-triazol-3-one]
IC50 (human V2 receptor): 2.1 nM
IC50 (human V1a receptor): 6.3 nM

CC(O)c1nc(Cn2nc(-c3ccc(Cl)cc3)n(C[C@H](O)C(F)(F)F)c2=O)nn1-c1cc(Cl)ccc1Cl (mixture of isomers) [Example 49, 5-(4-Chlorophenyl)-2-({1-(2,5-dichlorophenyl)-5-[(1RS)-1-hydroxyethyl]-1H-1,2,4-triazol-3-yl}-methyl)-4-[(2S)-3,3,3-trifluoro-2-hydroxypropyl]-2,4-dihydro-3H-1,2,4-triazol-3-one]
IC50 (human V2 receptor): 12.6 nM
IC50 (human V1a receptor): 1.8 nM

CC(O)c1nc(Cn2nc(-c3ccc(Cl)cc3)n(C[C@H](O)C(F)(F)F)c2=O)nn1-c1cccc(Cl)c1F (mixture of isomers) [Example 52, 2-({1-(3-Chloro-2-fluorophenyl)-5-[(1RS)-1-hydroxyethyl]-1H-1,2,4-triazol-3-yl}methyl)-5-(4-chlorophenyl)-4-[(2S)-3,3,3-trifluoro-2-hydroxypropyl]-2,4-dihydro-3H-1,2,4-triazol-3-one]
IC50 (human V2 receptor): 0.4 nM
IC50 (human V1a receptor): 3.9 nM
